How the values were obtained:
Assay type in all cases: in vivo
[1] = tested on: barnyardgrass (Echinochloa crus-galli); assay: Test A preemergence soil spray, visual injury rating 0-100; settings: 10 days, 0 = no effect, 100 = complete control
Outline: (§1)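 Grow plants in loam soil blended with sand. Apply formulated compound (non-phytotoxic solvent, surfactant) as a directed soil spray before emergence, or to plants at the one- to two-leaf stage after emergence. Hold in greenhouse 10 days, then rate injury visually versus untreated controls on a 0-100 scale.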

[2] = tested on: blackgrass (Alopecurus myosuroides); assay: as above; settings: 10 days, 0 = no effect, 100 = complete control
Outline: as §1

[3] = tested on: corn (Zea mays); assay: as above; settings: 10 days, 0 = no effect, 100 = complete control
Outline: as §1

[4] = tested on: green foxtail (Setaria viridis); assay: as above; settings: 10 days, 0 = no effect, 100 = complete control
Outline: as §1

[5] = tested on: kochia (Bassia scoparia); assay: as above; settings: 10 days, 0 = no effect, 100 = complete control
Outline: as §1

[6] = tested on: oat, wild (wild oat, Avena fatua); assay: as above; settings: 10 days, 0 = no effect, 100 = complete control
Outline: as §1

[7] = tested on: palmer (palmer amaranth, palmer pigweed, Amaranthus palmeri); assay: as above; settings: 10 days, 0 = no effect, 100 = complete control
Outline: as §1

[8] = tested on: ragweed (common ragweed, Ambrosia artemisiifolia); assay: as above; settings: 10 days, 0 = no effect, 100 = complete control
Outline: as §1

[9] = tested on: soybean (Glycine max); assay: as above; settings: 10 days, 0 = no effect, 100 = complete control
Outline: as §1

[10] = tested on: wheat (Triticum aestivum); assay: as above; settings: 10 days, 0 = no effect, 100 = complete control
Outline: as §1

[11] = tested on: barnyardgrass (Echinochloa crus-galli); assay: Test A postemergence application, visual injury rating 0-100; settings: 10 days
Outline: as §1

[12] = tested on: blackgrass (Alopecurus myosuroides); assay: as above; settings: 10 days
Outline: as §1

[13] = tested on: corn (Zea mays); assay: as above; settings: 10 days
Outline: as §1

[14] = tested on: galium (catchweed bedstraw, Galium aparine); assay: as above; settings: 10 days
Outline: as §1

[15] = tested on: green foxtail (Setaria viridis); assay: as above; settings: 10 days
Outline: as §1

[16] = tested on: horseweed (Erigeron canadensis); assay: as above; settings: 10 days
Outline: as §1

[17] = tested on: kochia (Bassia scoparia); assay: as above; settings: 10 days
Outline: as §1

[18] = tested on: oat, wild (wild oat, Avena fatua); assay: as above; settings: 10 days
Outline: as §1

[19] = tested on: palmer (palmer amaranth, palmer pigweed, Amaranthus palmeri); assay: as above; settings: 10 days
Outline: as §1

[20] = tested on: ragweed (common ragweed, Ambrosia artemisiifolia); assay: as above; settings: 10 days
Outline: as §1

[21] = tested on: ryegrass, Italian (italian ryegrass, Lolium multiflorum); assay: as above; settings: 10 days
Outline: as §1

[22] = tested on: soybean (Glycine max); assay: as above; settings: 10 days
Outline: as §1

[23] = tested on: wheat (Triticum aestivum); assay: as above; settings: 10 days
Outline: as §1

[24] = tested on: barnyardgrass (Echinochloa crusgalli); assay: Test B flooded paddy test, visual plant response rating 0-100; settings: 250 g ai/ha, Flood, applied to paddy water, evaluated after 13 days
Outline: (§2)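 Plants were grown to the 2-leaf stage, then pots were flooded to 3 cm above the soil and compound was applied directly to the paddy water, with that depth kept throughout.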

[25] = tested on: ducksalad (Heteranthera limosa); assay: as above; settings: 250 g ai/ha, Flood, applied to paddy water, evaluated after 13 days
Outline: as §2

[26] = tested on: rice (Oryza sativa); assay: as above; settings: 250 g ai/ha, Flood, applied to paddy water, evaluated after 13 days
Outline: as §2

[27] = tested on: sedge, umbrella (small-flower umbrella sedge, Cyperus difformis); assay: as above; settings: 250 g ai/ha, Flood, applied to paddy water, evaluated after 13 days
Outline: as §2

[28] = 31 g ai/ha, postemergence, 0 = no effect, 100 = complete control
[29] = Postemergence, 125 g ai/ha, 0 is no effect, 100 is complete control

In the case of `CC1(C(=O)NC2CCC(C(=O)O)C2)CN(c2cc(F)cc(Cl)c2)C(=O)O1` (centres unmarked) [Compound 7], the “Barnyardgrass plant response rating (0-100)” value ([1]; 31 g ai/ha) is reported as 0, the “Barnyardgrass plant response rating (0 to 100 scale)” value ([1]; 125 g ai/ha) is reported as 90 and the “Blackgrass plant response rating (0-100)” value ([2]; 31 g ai/ha) is reported as 20. For the same compound, the “Blackgrass plant response rating (0 to 100 scale)” value ([2]; 125 g ai/ha) was 70, the “Corn plant response rating (0-100)” value ([3]; 31 g ai/ha) was 0 and the “Corn plant response rating (0 to 100 scale)” value ([3]; 125 g ai/ha) was 80. For the same compound, the “Foxtail, Green plant response rating (0-100)” value ([4]; 31 g ai/ha) was 20, the “Foxtail, Green plant response rating (0 to 100 scale)” value ([4]; 125 g ai/ha) was 100 and the “Kochia plant response rating (0-100)” value ([5]; 31 g ai/ha) was 0. The “Kochia plant response rating (0 to 100 scale)” value ([5]; 125 g ai/ha) was 80, the “Oat, Wild plant response rating (0-100)” value ([6]; 31 g ai/ha) was 20 and the “Oat, Wild plant response rating (0 to 100 scale)” value ([6]; 125 g ai/ha) was 70. The “Amaranth, Palmer plant response rating (0-100)” value ([7]; 31 g ai/ha) was 0, the “Amaranth, Palmer plant response rating (0 to 100 scale)” value ([7]; 125 g ai/ha) was 90 and the “Ragweed plant response rating (0-100)” value ([8]; 31 g ai/ha) was 0. The “Ragweed plant response rating (0 to 100 scale)” value ([8]; 125 g ai/ha) was 0, the “Soybean plant response rating (0-100)” value ([9]; 31 g ai/ha) was 20 and the “Soybean plant response rating (0 to 100 scale)” value ([9]; 125 g ai/ha) was 60. The “Wheat plant response rating (0-100)” value ([10]; 31 g ai/ha) was 90, the “Wheat plant response rating (0 to 100 scale)” value ([10]; 125 g ai/ha) was 90 and the “Barnyardgrass plant response rating (0-100)” value [11, 28] was 100. For the same compound, the “Barnyardgrass plant response rating (0 to 100 scale)” value [11, 29] was 100, the “Blackgrass plant response rating (0-100)” value [12, 28] was 60 and the “Blackgrass plant response rating (0 to 100 scale)” value [12, 29] was 70. For the same compound, the “Corn plant response rating (0-100)” value [13, 28] was 90, the “Corn plant response rating (0 to 100 scale)” value [13, 29] was 100 and the “Galium plant response rating (0-100)” value [14, 28] was 80. For the same compound, the “Galium plant response rating (0 to 100 scale)” value [14, 29] was 80, the “Foxtail, Green plant response rating (0-100)” value [15, 28] was 50 and the “Foxtail, Green plant response rating (0 to 100 scale)” value [15, 29] was 90. The “Horseweed plant response rating (0-100)” value [16, 28] was 0, the “Horseweed plant response rating (0 to 100 scale)” value [16, 29] was 40 and the “Kochia plant response rating (0-100)” value [17, 28] was 70. The “Kochia plant response rating (0 to 100 scale)” value [17, 29] was 80, the “Oat, Wild plant response rating (0-100)” value [18, 28] was 90 and the “Oat, Wild plant response rating (0 to 100 scale)” value [18, 29] was 100. For the same compound, the “Amaranth, Palmer plant response rating (0-100)” value [19, 28] was 50, the “Amaranth, Palmer / Pigweed, Palmer plant response rating (0 to 100 scale)” value [19, 29] was 80 and the “Ragweed plant response rating (0-100)” value [20, 28] was 0. The “Ragweed plant response rating (0 to 100 scale)” value [20, 29] was 20, the “Ryegrass, Italian plant response rating (0-100)” value [21, 28] was 80 and the “Ryegrass, Italian plant response rating (0 to 100 scale)” value [21, 29] was 90. For the same compound, the “Soybean plant response rating (0-100)” value [22, 28] was 50, the “Soybean plant response rating (0 to 100 scale)” value [22, 29] was 60 and the “Wheat plant response rating (0-100)” value [23, 28] was 90. The “Wheat plant response rating (0 to 100 scale)” value [23, 29] was 90, the “Plant response rating, Barnyardgrass (0 to 100 scale, 0 is no effect and 100 is complete control)” value [24] was 60 and the “Plant response rating, Ducksalad (0 to 100 scale, 0 is no effect and 100 is complete control)” value [25] was 60. The “Plant response rating, Rice (0 to 100 scale, 0 is no effect and 100 is complete control)” value [26] was 25 and the “Plant response rating, Sedge, Umbrella (0 to 100 scale, 0 is no effect and 100 is complete control)” value [27] was 90.

From patent US20260285850A1, “SUBSTITUTED OXAZOLIDINONES AND IMIDAZOLINONES AS HERBICIDES” (FMC CORPORATION, priority 2023, published 2026)
